Test [1] can be described thus: Tested for inhibitory activity against UDP-N-acetylmuramoyl-L-alanine synthetase from Escherichia coli by malachite green assay.
Test [2] is described as follows: Tested for inhibitory activity against UDP-N-acetylmuramoyl-L-alanine synthetase from Escherichia coli by malachite green assay; Inactive.

In test [1], `CC(=O)N[C@H]1[C@@H](OP(=O)(O)O)O[C@H](CO)[C@@H](O)[C@@H]1OCP(=O)(O)CC(C)C(=O)O` (some centres undefined) had an IC50 above 100 µM.

Regarding `CC(CP(=O)(O)COCCCOP(=O)(O)O)C(=O)O` (centres undefined), the IC50 result in test [2] is listed as “Not Active”.

As for `CC(=O)N[C@H]1C(OP(=O)(O)OP(=O)(O)OC[C@H]2O[C@@H](n3ccc(=O)[nH]c3=O)[C@H](O)[C@@H]2O)O[C@H](CO)[C@@H](O)[C@@H]1OCP(=O)(O)CC(C)C(=O)O` (some centres undefined), it took 0.049 µM to reach half-maximal inhibition in test [1] (IC50).

In test [1], `CC(CP(=O)(O)COCCCOP(=O)(O)OP(=O)(O)OC[C@H]1O[C@@H](n2ccc(=O)[nH]c2=O)[C@H](O)[C@@H]1O)C(=O)O` (some centres undefined) yielded an IC50 of 60 µM. This IC50 lies about 1200-fold higher than the previous one.

A word on the IC50: it is the concentration needed to halve the response being measured. A higher IC50 goes with a need for much substance.

These data come from ChEMBL document CHEMBL1134087, “Inhibitors of the bacterial cell wall biosynthesis enzyme MurC” (Bioorg Med Chem Lett, 2001).
